Test results: ChEMBL document CHEMBL4627275, “Inhibition of cholesteryl ester synthesis by polyacetylenes from Atractylodes rhizome” (Bioorg Med Chem Lett, 2020)
The source made the active and inactive calls. The calls are words filed in the database; no cut-off is given here.

What was measured:
CHO-K1 [1] = assay: Inhibition of [14C]cholesterol ester biosynthesis in CHOK1 cells using [14C]Oleic acid as substrate after 6 hrs by TLC method; format: functional, cell-based; details: Cricetulus griseus, CHO-K1, 6 h
CHO-K1 [2] = assay: Inhibition of [14C]triglyceride biosynthesis in CHOK1 cells using [14C]Oleic acid as substrate after 6 hrs by TLC method; format: functional, cell-based; details: Cricetulus griseus, CHO-K1, 6 h
[3] = target: T1, Sterol O-acyltransferase 1 (Homo sapiens, UniProt P35610); assay: Inhibition of human SOAT1 mediated [14C]Cholesterol ester synthesis in CHO cells after 6 hrs in presence of [14C]Oleic acid by TLC analysis; format: cell-based
T1 sequence (P35610 whole entry): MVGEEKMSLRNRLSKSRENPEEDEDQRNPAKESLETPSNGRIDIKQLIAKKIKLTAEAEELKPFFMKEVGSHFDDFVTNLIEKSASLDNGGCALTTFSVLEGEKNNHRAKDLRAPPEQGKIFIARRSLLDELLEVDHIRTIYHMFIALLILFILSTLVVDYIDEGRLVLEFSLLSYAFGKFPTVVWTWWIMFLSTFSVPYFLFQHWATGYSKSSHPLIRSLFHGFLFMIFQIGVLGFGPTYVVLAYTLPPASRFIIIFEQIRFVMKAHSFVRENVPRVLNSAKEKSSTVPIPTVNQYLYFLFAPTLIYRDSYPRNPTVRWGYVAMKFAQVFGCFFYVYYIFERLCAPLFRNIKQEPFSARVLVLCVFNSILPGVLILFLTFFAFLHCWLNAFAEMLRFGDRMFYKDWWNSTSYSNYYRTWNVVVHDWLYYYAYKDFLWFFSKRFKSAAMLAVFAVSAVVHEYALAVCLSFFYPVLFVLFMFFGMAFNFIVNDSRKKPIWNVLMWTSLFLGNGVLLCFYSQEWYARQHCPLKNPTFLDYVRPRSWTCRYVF

[4] = target: T1, Sterol O-acyltransferase 1; assay: Inhibition of human SOAT1-mediated [14C]Cholesterol ester biosynthesis in CHO microsomal fraction after 5 mins in presence of [1-14C]oleoyl-CoA by TLC analysis
[5] = target: T2, Sterol O-acyltransferase 2 (Homo sapiens, UniProt O75908); assay: Inhibition of human SOAT2-mediated [14C]Cholesterol ester synthesis in CHO cells after 6 hrs in presence of [14C]Oleic acid by TLC analysis; format: cell-based
T2 sequence (O75908 whole entry): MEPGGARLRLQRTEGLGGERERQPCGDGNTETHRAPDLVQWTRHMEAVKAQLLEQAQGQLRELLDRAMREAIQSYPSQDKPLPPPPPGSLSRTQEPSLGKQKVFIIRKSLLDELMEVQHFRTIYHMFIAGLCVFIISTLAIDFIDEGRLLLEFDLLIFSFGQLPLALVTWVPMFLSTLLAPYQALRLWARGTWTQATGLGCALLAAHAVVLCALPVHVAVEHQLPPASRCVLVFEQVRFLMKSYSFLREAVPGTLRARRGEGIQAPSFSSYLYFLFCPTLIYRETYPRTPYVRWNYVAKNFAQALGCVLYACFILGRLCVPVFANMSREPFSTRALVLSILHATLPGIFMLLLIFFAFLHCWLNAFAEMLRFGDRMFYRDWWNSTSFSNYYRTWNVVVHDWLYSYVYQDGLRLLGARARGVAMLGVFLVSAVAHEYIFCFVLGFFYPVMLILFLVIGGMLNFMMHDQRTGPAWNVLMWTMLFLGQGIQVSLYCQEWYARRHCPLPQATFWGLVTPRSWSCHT

CHO-K1 [6] = assay: (§1) Inhibition of SOAT in CHOK1 microsomes; details: Cricetulus griseus
[7] = as §1; set-up: species or system Cricetulus griseus; details: cho-k1
CHO-K1 [8] = assay: Effect on lipid droplet accumulation in CHOK1 cells at >100 uM preincubated with oleic acid for 12 hrs followed by replacement of fresh medium containing compounds and measured after 6 hrs by oil red O staining based confocal laser scanning microscopy; format: functional, cell-based; details: Cricetulus griseus
CHO-K1 [9] = assay: Cytotoxicity against CHOK1 cells assessed as reduction in cell viability; format: cell-based; details: Cricetulus griseus
[10] = target: T2, Sterol O-acyltransferase 2; assay: Inhibition of human SOAT2-mediated [14C]Cholesterol ester biosynthesis in CHO microsomal fraction after 5 mins in presence of [1-14C]oleoyl-CoA by TLC analysis

Compound	IC50 (CHO-K1 [1]) [µM]	IC50 (CHO-K1 [2]) [µM]	IC50 [3] [µM]	IC50 [4] [µM]	IC50 [5] [µM]	inhibition (CHO-K1 [6])	IC50 [7] [µM]	Activity (CHO-K1 [8])	IC50 (CHO-K1 [9]) [µM]	IC50 [10] [µM]
CC(=O)OCCC(/C=C/C=C/C#CC#C/C=C/CO)OC(=O)C=C(C)C (configuration not stated)	35.4	> 136	32.8	4.7	36.2	Dose-dependent effect	29	inactive	111	11.5
C=C1CCC[C@]2(C)C[C@]3(O)OC(=O)C(C)=C3C[C@@H]12 [ATRACTYLENOLIDE III]	73.5	> 195	–	–	187	–	211	inactive	> 195	101
